ChEMBL document CHEMBL1127254, “Induction of endonucleolytic DNA fragmentation and apoptosis by the duocarmycins” (Bioorg Med Chem Lett, 1994)

Tests used:
[1] = Mean concentration required for the compound to inhibit tumor activity in 20 different cell lines was determined; format: functional
MOLT-4 [2] = assay: Induced cell death in Molt-4 cell line at a dose of E-10 M after 1 hour of incubation; format: functional, Homo sapiens
MOLT-4 [3] = assay: Induced cell death in Molt-4 cell line at a dose of E-9 M after 28 hour of incubation; format: functional, Homo sapiens
MOLT-4 [4] = assay: Induced cell death in Molt-4 cell line at a dose of E-8 M after 8 hour of incubation; format: functional, Homo sapiens
MOLT-4 [5] = assay: Induced cell death in Molt-4 cell line at a dose of E-9 M after 5 hour of incubation; format: functional, Homo sapiens
MOLT-4 [6] = assay: Induced cell death in Molt-4 cell line at a dose of E-10 M after 20 hour of incubation; format: functional, Homo sapiens
MOLT-4 [7] = assay: Induced cell death in Molt-4 cell line at a dose of E-8 M after 3 hour of incubation; format: functional, Homo sapiens
MOLT-4 [8] = assay: Induced cell death in Molt-4 cell line at a dose of E-10 M after 8 hour of incubation; format: functional, Homo sapiens
MOLT-4 [9] = assay: Induced cell death in Molt-4 cell line at a dose of E-8 M after 5 hour of incubation; format: functional, Homo sapiens
MOLT-4 [10] = assay: Induced cell death in Molt-4 cell line at a dose of E-10 M after 5 hour of incubation; format: functional, Homo sapiens
MOLT-4 [11] = assay: Induced cell death in Molt-4 cell line at a dose of E-8 M after 28 hour of incubation; format: functional, Homo sapiens
MOLT-4 [12] = assay: Induced cell death in Molt-4 cell line at a dose of E-9 M after 1 hour of incubation; format: functional, Homo sapiens
MOLT-4 [13] = assay: Induced cell death in Molt-4 cell line at a dose of E-9 M after 3 hour of incubation; format: functional, Homo sapiens
MOLT-4 [14] = assay: Induced cell death in Molt-4 cell line at a dose of E-8 M after 1 hour of incubation; format: functional, Homo sapiens
MOLT-4 [15] = assay: Induced cell death in Molt-4 cell line at a dose of E-10 M after 3 hour of incubation; format: functional, Homo sapiens
MOLT-4 [16] = assay: Induced cell death in Molt-4 cell line at a dose of E-9 M after 8 hour of incubation; format: functional, Homo sapiens
MOLT-4 [17] = assay: Induced cell death in Molt-4 cell line at a dose of E-9 M after 20 hour of incubation; format: functional, Homo sapiens
MOLT-4 [18] = assay: Induced cell death in Molt-4 cell line at a dose of E-10 M after 28 hour of incubation; format: functional, Homo sapiens
MOLT-4 [19] = assay: Induced cell death in Molt-4 cell line at a dose of E-8 M after 20 hour of incubation; format: functional, Homo sapiens

SMILES	IC50 [1] [nM]	Viability (MOLT-4 [2]) [%]	Viability (MOLT-4 [3]) [%]	Viability (MOLT-4 [4]) [%]	Viability (MOLT-4 [5]) [%]	Viability (MOLT-4 [6]) [%]	Viability (MOLT-4 [7]) [%]	Viability (MOLT-4 [8]) [%]	Viability (MOLT-4 [9]) [%]	Viability (MOLT-4 [10]) [%]	Viability (MOLT-4 [11]) [%]	Viability (MOLT-4 [12]) [%]	Viability (MOLT-4 [13]) [%]	Viability (MOLT-4 [14]) [%]	Viability (MOLT-4 [15]) [%]	Viability (MOLT-4 [16]) [%]	Viability (MOLT-4 [17]) [%]	Viability (MOLT-4 [18]) [%]	Viability (MOLT-4 [19]) [%]
COC(=O)[C@]1(C)Nc2c(O)cc3c(c2C1=O)[C@H](CCl)CN3C(=O)c1cc2cc(OC)c(OC)c(OC)c2[nH]1	20																		
COC(=O)c1cc2c([nH]1)C(=O)C=C1N(C(=O)c3cc4cc(OC)c(OC)c(OC)c4[nH]3)C[C@H]3C[C@]123 [DUOCARMYCIN]	0.1	95	12	42	85	58	92	65	80	90	10	95	95	95	95	52	15	58	10
